Legend:
[1] = tested on: neural organoids; assay: Cleaved caspase-3 immunofluorescence in adjacent neural organoids of the assembloids; type: cell-based, human; conditions: 200 nM panobinostat, neural organoids fused to DIPG organoids
Method: Organoids and assembloids were fixed in 4% PFA for 2 hours at 4° C. They were then washed three times with DPBS, for 15 min each, and transferred to a 30% sucrose solution in DPBS for 24-48 hours at 4° C. Once the organoids or assembloids sank in the sucrose solution, they were embedded in a 1:1 mixture of OCT (Fisher Scientific) and 30% sucrose in DPBS. They were then snap frozen on dry ice and stored at −80° C. A cryostat (Leica) was used to cut 50 μm sections for immunostaining.
Cryosections were washed with DPBS to remove excess OCT, then permeabilized with 0.25% Triton X-100 (Thermo Fisher) in DPBS (DPBS-T) for 1 hour and blocked with 5% goat serum (Gibco), 5% bovine serum albumin (BSA, Sigma), and 0.5% Triton X-100 in DPBS for 3 hours, all at RT. Samples were stained with primary antibodies for GFP, (1:200, Invitrogen a11122), cleaved caspase-3 (1:400, Cell Signaling 9661), and histone H3 mutated K27M (1:400, Abcam ab190631). Primary antibodies were diluted in 2.5% goat serum, 2.5% BSA, and 0.5% Triton X-100 in DPBS and incubated with the samples overnight at 4° C., Next, the samples were washed with DPBS-T (3×30 min, RT) and incubated with secondary antibody Alexa Fluor 488 (1:500, Invitrogen, A-11034) and 4′,6-diamidino-2-phenylindole (DAPI, 5 mg/mL stock, 1:2000, Invitrogen) in the same antibody dilution solution overnight at 4° C. […]

[2] = Cellulase-mediated CNF support scaffold degradation (rheology); conditions: range of cellulase concentrations, 0.5 wt % CNF, over time
Method: For measurements of cellulase-mediated CNF support scaffold degradation, cellulase (Sigma) was dissolved in DMEM/F12 (Gibco) and added atop 0.5 wt % CNF in a 1:4 ratio by volume to approximate the ratio of media to CNF support within the bioprinting chip. All samples were incubated in a humidified 37° C. incubator for three days. Depending on the downstream measurement, cellulase solutions, as well as non-cellulase containing DMEM/F12 controls, were either changed every day or allowed to incubate over the full three days without a media change.
Viscosity and storage moduli were obtained with an AR-G2 (TA Instruments) stress-controlled rheometer (20 mm 1° cone and plate geometry with a 28 μm gap). To observe the effect of cellulase on the viscosity of CNF over 72 hours, samples were loaded onto the stage at 37° C. for a 5 min time sweep with 1% oscillatory strain and 1 rad/s angular frequency. This was followed by a frequency sweep from 0.1 to 100 Hz at 1% strain. To measure the storage modulus, samples were loaded onto the stage at 2 hours, 4 hours, 6 hours, 24 hours, 48 hours, and 72 hours and subjected to a frequency sweep at 1 rad/s angular frequency.

[3] = tested on: neural organoids; assay: Neural organoid viability (calcein AM / ethidium homodimer) after cellulase; type: cell-based, human; conditions: 0.5 wt % cellulase treatment over time
Method: To characterize viability, organoids were submerged in a solution consisting of DPBS supplemented with 2 μM calcein AM and 4 µM ethidium homodimer for 20 min at 37° C. The samples were washed with DPBS and imaged with an epifluorescent microscope (Leica Microsystems, THUNDER Imager 3D Cell Culture) and confocal microscope (Leica SPE).

[4] = Cellulase-mediated removal of residual CNF on extracted neural organoids; conditions: 0.5 wt % cellulase, over 72 hours
Method: To characterize cellulase-mediated CNF degradation after neural organoid release from the support scaffold, neural organoids were first cultured in 0.5 wt % CNF support bath for 1 day and released through diluting the support bath with DPBS. A 0.5 wt % cellulase (Sigma) solution, made up in neural medium, was filtered through a 0.22 μm filter, warmed to 37° C., and added to the organoids with daily medium changes. Organoids were imaged every day with an epifluorescent microscope (Leica Microsystems, THUNDER Imager 3D Cell Culture). The area of residual CNF on the organoid surface was manually measured with ImageJ (NIH, v.2.3.0/1.53q).

residual CNF removed from organoid surface [4] | Compound | cleaved caspase-3 expression (apoptosis) in adjacent neural organoids [1] | cleaved caspase-3 expression (apoptosis) in adjacent neural organoids ([1]; listed as Panobinostat) | viscosity and storage modulus of CNF support after cellulase [2] | organoid viability [3]
– | Cc1[nH]c2ccccc2c1CCNCc1ccc(/C=C/C(=O)NO)cc1 [panobinostat] | did not exhibit substantially increased cleaved caspase-3 expression | does not induce substantial apoptosis | – | –
over 98% | cellulase | – | – | stepwise decreases in both viscosity and storage modulus | does not affect organoid viability

From patent publication US12698463B2, “Spatially controlled fabrication of multi-spheroid tissues using magnetic bioprinting” (The Board of Trustees of the Leland Stanford Junior …, priority 2022, dated 2026)
